In patent US11707065B2, “Method for biofilm dispersal” (MC (US) 3 LLC, priority 2017, dated 2023):

What was measured:
[1] = system: Desulfovibrio vulgaris (ATCC 29579) biofilm; test: Biofilm dispersal assay, crystal violet staining of remaining biofilm in 96-well plates; type: cell-based; details: D. vulgaris
Experimental: (§1) Cultures of Desulfovibrio vulgaris (ATCC 29579) and Desulfovibrio desulfuricans (DSM 12129) were prepared in Modified Baar's medium at 30 C under anaerobic conditions. The bacterial cultures were then used to prepare bacterial suspensions in fresh Modified Baar's medium to a cell density of 0.1 (Table 2 to 6) or 0.05 (Table 1) at 600 nm. The appropriate bacterial suspension was used to fill 96-well plates and the plates were incubated in an anaerobic glove box for 24 h (Table 2 to 6) or 48 h (Table 1) at 30° C. to develop biofilms. Stocks of D-mannose (2.85 M, Alfa Aesar, Cat #A10842), 2DG (1.22 M, Alfa Aesar, Cat #AAAL07338-06), αMM (1.22 M, Acros Organics, Cat #AC229251000), and αMG (1.22 M, Alfa Aesar, Cat #AAA12484-22) were prepared in sterile distilled water and filtered through a 0.22 μm filter. For biofilm dispersal assay, the planktonic cells were removed, and the plates were washed with 150 μL of 1× of phosphate buffered saline (pH 7.4); D-mannose, 2DG, αMM, and αMG were added, the volume was adjusted with 1×PBS, pH 7.4 to 150 μL, and the plates were incubated in the anaerobic glove box for 2 h (Table 1, 2, 4, 5, 6) or 14 h (Table 3) for biofilm dispersal studies. After the treatment, supernatants were discarded; the wells were washed three times with deionized water (DW) by dipping the plates into a 1 L solution of DW, and the plates were dried via a piece of paper towel by patting. 300 μL of 0.1% crystal violet was added to each well, the plates were incubated for 20 minutes at room temperature (25° C.), and the staining solution was discarded. The plates were washed three times with DW by dipping the plates into a 1 L solution of DW, then 300 μL of 95% ethanol was added to each well, and the plates were soaked for 5 min to dissolve the crystal violet. Total biofilm was measured spectrophotometrically at 540 nm using a Sunrise microplate reader (Tecan, Austria Gesellschaft, Salzburg, Austria).

[2] = system: Desulfovibrio desulfuricans (DSM 12129) biofilm; test: as above; type: cell-based; details: D. desulfuricans, 2 h treatment, 24 h biofilm, negative control 0.88
Experimental: as §1

[3] = 30 mM, 2 h treatment, 24 h biofilm (cell density 0.1), negative control per table
[4] = 100 mM, 2 h treatment, 24 h biofilm (cell density 0.1), negative control per table
[5] = 500 mM, 2 h treatment, 24 h biofilm (cell density 0.1), negative control per table

Compound	Remaining biofilm OD540 [1, 3]	Remaining biofilm OD540 [1, 4]	Remaining biofilm OD540 [1, 5]	Remaining biofilm OD540 (average) ([2]; 30 mM)	Remaining biofilm OD540 (average) ([2]; 100 mM)	Remaining biofilm OD540 (average) ([2]; 500 mM)	Remaining biofilm OD540 ([1]; 1 mM, 14 h treatment, 24 h biofilm, negative control 0.26)	Remaining biofilm OD540 ([1]; 5 mM, 14 h treatment, 24 h biofilm, negative control 0.26)	Remaining biofilm OD540 ([1]; 10 mM, 14 h treatment, 24 h biofilm, negative control 0.26)
CO[C@H]1O[C@H](CO)[C@@H](O)[C@H](O)[C@H]1O [αMG, methyl α-D-glucopyranoside]	0.39	0.33	0.45	0.75	0.62	0.55			
O=CC[C@@H](O)[C@H](O)[C@H](O)CO [2DG, 2-deoxy-D-glucose]	0.24	0.17	0.18	0.59	0.49	0.41	0.24	0.21	0.16
CO[C@H]1O[C@H](CO)[C@@H](O)[C@H](O)[C@@H]1O [αMM, methyl α-D-mannopyranoside]	0.42	0.40	0.23	0.60	0.53	0.50			
